Counter-ions that a name gives are not always drawn.
Molecular target: T1, Human Histamine H3 Receptor (Homo sapiens, UniProt Q9Y5N1)
T1 construct: expressed in transfected cells; host or cells: HEK293T cells, stably transfected; membrane preparation
Assay: Methyl histamine binding in human histamine H3 receptor cell line
Conditions: membranes of stably transfected HEK293T cells; radioligand 1 nM; Ki from IC50 by Cheng-Prusoff
Procedure: Evaluation of Methyl Histamine Binding in Human Histamine H3 Receptor Cell Line
The affinity of test compounds for the histamine 3 (H3) receptor is evaluated in the following manner. Stably transfected HEK293T cells are grown in DMEM containing 10% heat inactivated FBS and G-418 (500 ug/ml). Cells are scraped from the plate, transferred to centrifuge tubes, washed one time in PBS by centrifugation in a Sorvall RT7 Plus centrifuge (2000 rpm 10 minutes, 4° C.). The resulting pellets are stored at −80° C. until ready for use. Cells are re-suspended in buffer (50 mM Tris pH=7.5) and placed in a Dounce homogenizer, douncing ten times to homogenize cells. The homogenate is spun down by centrifugation (Sorvall RT7 Plus, 1800 rpm 10 minutes, 4° C.). The supernatant is placed in a Corex tube and spun down by centrifugation (Sorvall RC 5c Plus, 17,000 rpm 20 minutes, 4° C.). The pellet is resuspended in buffer (50 mM Tris, pH 7.5). Protein concentration (ug/ul) is determined using the Micro-BCA Protein Determination. The binding assay is set up in a 96 well microtiter plate in a total volume of 250 uL. Non-specific binding is determined in the presence of 10 uM clobenpropit. The final radioligand concentration is 1 nM. The test compound is serially diluted using the Beckman Biomek2000 to a final approximate range of 100 uM to 100 pM. Membranes are suspended in buffer, homogenized in 2 bursts of ten seconds using a Vitris mechanical homogenizer set at power setting 5. Ten μg of membranes are added to each well. Following a one hour incubation at 30° C., the reaction is terminated by the addition of ice cold buffer and rapid filtration with a Packard Filtermate Harvester through a GF/B filter pre-soaked with 1% PEI for one hour. The plate is dried for one hour at 37° C. and 60 μL Microscint Scintillant is added to each well. The CPM per well is measured on a Packard Top Count NXT. Ki values are determined in nM. The Ki is calculated from the IC50 (i.e. the concentration of competing ligand which displaces 50% of the specific binding of the radioligand). CPM values are expressed as % specific binding and plotted vs compound concentration. A curve is fitted using a four-parameter logistic fit and the IC50 value is determined. The Ki is calculated from this using the Cheng-Prusoff equation: […]=IC50/1+(L/Kd) where L=concentration of free radioligand used in the assay, and Kd is the dissociation constant of the radioligand for the receptor. L is determined for each experiment by counting an aliquot of the diluted radioligand (corresponding to that added to each well) and the Kd has previously been determined under identical conditions for this cell line/radioligand.

T1 sequence (Q9Y5N1 whole entry): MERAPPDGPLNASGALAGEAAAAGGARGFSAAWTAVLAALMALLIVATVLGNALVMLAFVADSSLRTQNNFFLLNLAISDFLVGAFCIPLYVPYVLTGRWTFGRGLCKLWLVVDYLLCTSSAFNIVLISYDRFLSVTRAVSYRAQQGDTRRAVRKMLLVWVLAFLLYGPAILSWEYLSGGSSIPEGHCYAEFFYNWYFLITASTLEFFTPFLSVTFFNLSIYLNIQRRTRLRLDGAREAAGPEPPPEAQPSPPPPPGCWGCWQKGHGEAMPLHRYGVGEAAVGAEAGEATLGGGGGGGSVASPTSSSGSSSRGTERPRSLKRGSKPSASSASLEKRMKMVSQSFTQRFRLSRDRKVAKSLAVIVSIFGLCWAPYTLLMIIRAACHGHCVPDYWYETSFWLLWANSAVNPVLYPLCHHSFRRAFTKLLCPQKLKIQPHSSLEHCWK

Row | Compound | Ki [nM]
1 | O=C(c1ccc(COc2ccc3c(c2)CCN(C2CCN(C4CCC4)CC2)C3=O)cc1)N1CCCC1 [Example 20, 2-(1-Cyclobutylpiperidin-4-yl)-6-{[4-(pyrrolidin-1-ylcarbonyl)benzyl]oxy}-3,4-dihydroisoquinolin-1(2H)-one] | ≤ 10
2 | CCNC(=O)c1ccc(Oc2ccc3c(c2)CCN(C2CCN(C4CCC4)CC2)C3=O)cc1 [Example 5, 4-{[2-(1-Cyclobutylpiperidin-4-yl)-1-oxo-1,2,3,4-tetrahydroisoquinolin-6-yl]oxy}-N-ethylbenzamide] | ≤ 10
3 | NC(=O)c1ccc(Oc2ccc3c(c2)CCN(C2CCN(C4CCC4)CC2)C3=O)cc1 [Example 3, 4-{[2-(1-cyclobutylpiperidin-4-yl)-1-oxo-1,2,3,4-tetrahydroiso-quinolin-6-yl]oxy}benzamide Hydrochloride] | 10.1 to 25
4 | CCN1CCC(N2Cc3cc(-c4ccc(C#N)cc4)ccc3C2=O)CC1 [Example 24, 4-[2-(1-Ethylpiperidin-4-yl)-1-oxo-2,3-dihydro-1H-isoindol-5-yl]benzonitrile] | > 100
5 | NC(=O)c1ccc(COc2ccc3c(c2)CCN(C2CCN(C4CCC4)CC2)C3=O)cc1 [Example 15, 4-({[2-(1-cyclobutylpiperidin-4-yl)-1-oxo-1,2,3,4-tetrahydroiso-quinolin-6-yl]oxy}methyl)benzamide acid hydrochloride] | ≤ 10
6 | O=C(NC1CCC1)c1ccc(COc2ccc3c(c2)CCN(C2CCN(C4CCC4)CC2)C3=O)cc1 [Example 19, N-Cyclobutyl-4-({[2-(1-cyclobutylpiperidin-4-yl)-1-oxo-1,2,3,4-tetrahydroisoquinolin-6-yl]oxy}methyl)benzamide] | ≤ 10

More lines, now with the values ahead:

Row | Ki [nM] | Compound
7 | ≤ 10 | O=C(c1ccc(-c2ccc3c(c2)CCN(C2CCN(C4CCC4)CC2)C3=O)cc1)N1CCCC1 [Example 65, 2-(1-cyclobutylpiperidin-4-yl)-6-[4-(pyrrolidin-1-ylcarbonyl)phenyl]-3,4-dihydroisoquinolin-1(2H)-one]
8 | ≤ 10 | O=C(c1ccc(Oc2ccc3c(c2)CCN([C@@H]2CCN(C4CCCC4)C2)C3=O)cc1)N1CCCC1 [Example 39, 2-[(3R)-1-cyclopentylpyrrolidin-3-yl]-6-[4-(pyrrolidin-1-ylcarbonyl)phenoxy]-3,4-dihydroisoquinolin-1(2H)-one]
9 | > 100 | CCCN1CCC(N2Cc3cc(-c4ccc(C#N)cc4)ccc3C2=O)CC1 [Example 25, 4-[1-Oxo-2-(1-propylpiperidin-4-yl)-2,3-dihydro-1H-isoindol-5-yl]benzonitrile]
10 | 50.1 to 100 | N#Cc1ccc(-c2ccc3c(c2)CN(C2CCN(CC4CC4)CC2)C3=O)cc1 [Example 26, 4-{2-[1-(Cyclopropylmethyl)piperidin-4-yl]-1-oxo-2,3-dihydro-1H-isoindol-5-yl}benzonitrile]
11 | ≤ 10 | CC(C)N1CCC(N2CCc3cc(-c4ccc(C(=O)N5CCCC5)cc4)ccc3C2=O)CC1 [Example 67, 2-(1-isopropylpiperidin-4-yl)-6-[4-(pyrrolidin-1-ylcarbonyl)phenyl]-3,4-dihydroisoquinolin-1(2H)-one]
12 | ≤ 10 | CCNC(=O)c1ccc(-c2ccc3c(c2)CCN([C@@H]2CCN(C(C)C)C2)C3=O)cc1 [Example 83, N-ethyl-4-{2-[(3R)-1-isopropylpyrrolidin-3-yl]-1-oxo-1,2,3,4-tetrahydroisoquinolin-6-yl}benzamide]
13 | ≤ 10 | O=C(c1ccc(-c2ccc3c(c2)CCN([C@@H]2CCN(C4CCC4)C2)C3=O)c(F)c1)N1CCCC1 [Example 79, 2-[(3R)-1-cyclobutylpyrrolidin-3-yl]-6-[2-fluoro-4-(pyrrolidin-1-ylcarbonyl)phenyl]-3,4-dihydroisoquinolin-1(2H)-one]
14 | 25.1 to 50 | N#Cc1ccc(-c2ccc3c(c2)CN(C2CCN(CC4CCCC4)CC2)C3=O)cc1 [Example 27, 4-{2-[1-(Cyclopentylmethyl)piperidin-4-yl]-1-oxo-2,3-dihydro-1H-isoindol-5-yl}benzonitrile]
